{"source": "paper PMC7180984", "about": "“A Hydrophilic Interaction Liquid Chromatography–Tandem Mass Spectrometry Quantitative Method for Determination of Baricitinib in Plasma, and Its Application in a Pharmacokinetic Study in Rats” (Molecules, 2020)", "key": {"[1]": {"experiment": "Stability of working solutions", "assay_type": "physicochemical", "description": "Stability of the analyte was assessed using five measurements of QC samples at low and high concentrations after exposure to different conditions of storage and processing temperature. Baracitinib stability was evaluated after three freeze-thaw cycles, storage at room temperature (23–25 °C) for 6 h (short term stability), and subsequent storage for eight weeks at −80 °C (long term stability). […]"}, "[2]": {"experiment": "Pharmacokinetic study in rats after oral administration of baricitinib suspension", "assay_type": "in vivo, Sprague Dawely rats", "description": "Sample analysis was performed on an Acquity TQD UPLC-MS/MS system (Waters Co., Milford, MA, USA). The triple quadrupole mass spectrometer was operated in the MRM mode, and detection was carried out using electrospray ionization (ESI) in the positive ion mode. In addition, the mass spectrometry parameters including parent to daughter ion transition, collision energy, cone voltage, and dwell time were optimized to determine the analyte and IS (Table 5). The collision gas (argon) flow rate was kept at 0.1 mL/min and the desolvation gas (nitrogen) flow rate was optimized to 600 L/h. […] The flow rate was 0.2 mL/min.\nBaricitinib and IS were extracted from rat plasma using liquid–liquid extraction. 20 µL of irbesartan working solution (20 µg/mL) was added to 100 µL plasma samples. After vortex-mixing for 20 s, 1 mL of n-hexane:dichlromethane mixture (1:1) was added. Samples were then mixed for 1 min and centrifuged for 5 min at 5600× g. The supernatant (0.8 mL) was transferred to a 5-mL tube and evaporated to dryness at 40 °C. Residues were reconstituted in 100 µL of the mobile phase and 5 µL was injected into the LC-MS/MS system.\nSprague Dawely rats weighing 200–230 g were obtained from the animal house at the National Organization for Drug Control and Research, Giza, Egypt. Rats were fed standard sufficient food and water and experiments were performed under the Guide for Care and Use of laboratory animals. experimental protocols were approved by the ethics committee of the Faculty of Pharmacy at Al-Azhar University, Cairo, Egypt (no. 206).\nBaricitinib was used to create a suspension using 1% carboxymethyl cellulose. Following overnight fasting, the drug was administered in a dose of 2 mg/10 mL/kg. Blood samples (approximately 0.25 mL) were then collected from the retro-orbital plexus into heparinized tubes at 0.0, 0.25, 0.5, 0.75, 1.0, 1.25, 2.0, 3.0, 5.0, 7.0, 9.0, and 11.0 h post-dosing. Plasma samples were obtained by centrifuging the blood at 4250× g for 5 min and stored frozen at −80 °C until analysis. The pharmacokinetic parameters Cmax, tmax, AUC, t½, and Kel were calculated using WinNonlin software."}, "[3]": {"experiment": "Stability of quality control samples in rat plasma", "assay_type": "in vitro ADME", "settings": "n = 6", "description": "[…] Baracitinib stability was evaluated after three freeze-thaw cycles, storage at room temperature (23–25 °C) for 6 h (short term stability), and subsequent storage for eight weeks at −80 °C (long term stability). Moreover, the stability of stock and working solutions of baricitinib and the IS at room temperature for 6 h (23–25 °C) and at refrigerator (2–8 °C) for 12 days was tested."}, "[4]": {"parameters": "method as in PMID 24965573", "settings": "cited from earlier work"}, "[5]": {"settings": "cited from earlier work"}, "CYP3A4 enzyme": {"tested_on": "CYP3A4 enzyme", "parameters": "method as in PMID 30907116", "settings": "cited from earlier work"}, "P-glycoprotein (Pgp)": {"tested_on": "P-glycoprotein (Pgp)", "parameters": "method as in PMID 30907116", "settings": "cited from earlier work"}, "[6]": {"tested_on": "organic anionic transporter (OAT) 3", "parameters": "method as in PMID 30907116", "settings": "cited from earlier work"}, "[7]": {"tested_on": "multidrug and toxic extrusion protein (MATE) 2-K", "parameters": "method as in PMID 30907116", "settings": "cited from earlier work"}, "[8]": {"tested_on": "breast cancer resistance protein (BCRP)", "parameters": "method as in PMID 30907116", "settings": "cited from earlier work"}, "[9]": {"settings": "cited from earlier work", "remark": "listed apart in the source"}, "[10]": {"parameters": "method as in earlier work", "settings": "pre-clinical animal studies, at higher dosages; cited from earlier work"}, "[11]": {"settings": "refrigerated temperature (2–8 °C) for 10 days"}, "[12]": {"settings": "room temperature (23–25 °C) for 6 h"}, "[13]": {"settings": "Sprague-Dawley, rat, plasma, male rats, oral 2 mg/kg suspension, fasted, mean ± SD"}, "[14]": {"settings": "rats, literature value higher than present work"}, "[15]": {"settings": "Auto-sampler, nominal 40.0 ng/mL"}, "[16]": {"settings": "Auto-sampler, nominal 400.0 ng/mL"}, "[17]": {"settings": "Bench top (6 h), nominal 400.0 ng/mL"}, "[18]": {"settings": "Long term (at −80 °C for 8 weeks), nominal 40.0 ng/mL"}, "[19]": {"settings": "Long term (at −80 °C for 8 weeks), nominal 400.0 ng/mL"}, "[20]": {"settings": "Thaw/freeze (3 cycles), nominal 40.0 ng/mL"}, "[21]": {"settings": "Thaw/freeze (3 cycles), nominal 400.0 ng/mL"}, "[22]": {"settings": "co-administration of high-fat meal"}, "[23]": {"settings": "with rifampicin (potent CYP3A inducer)"}}, "note": "Read-outs that look alike come from different tables or passages of the source."}
{"smiles": "CCCCC1=NC2(CCCC2)C(=O)N1Cc1ccc(-c2ccccc2-c2nnn[nH]2)cc1", "note": "[IS, irbesartan]", "values": [{"measurement": "Stability of working solution", "setting": "[1]; [11]", "value": "stable"}, {"measurement": "Stability of working solution", "setting": "[1]; [12]", "value": "stable"}]}
{"smiles": "CCS(=O)(=O)N1CC(CC#N)(n2cc(-c3ncnc4[nH]ccc34)cn2)C1", "note": "[baricitinib, Baricitinib]", "values": [{"measurement": "AUC(0-inf)", "setting": "[2]; [13]", "value": "223 ± 107", "unit": "ng·h/mL"}, {"measurement": "Cmax", "setting": "[2]; [13]", "value": "129 ± 91.4", "unit": "ng/mL"}, {"measurement": "MRT", "setting": "[2]; [13]", "value": "3.3 ± 0.78", "unit": "h"}, {"measurement": "half-life", "setting": "[2]; [13]", "value": "2.24 ± 0.43", "unit": "h"}, {"measurement": "AUC(0-t)", "setting": "[2]; Sprague-Dawley, rat, plasma, male rats, oral 2 mg/kg suspension, fasted, mean ± SD, read-out: AUC0-11", "value": "205 ± 101", "unit": "ng·h/mL"}, {"measurement": "Tmax", "setting": "[2]; Sprague-Dawley, rat, plasma, male rats, oral 2 mg/kg suspension, fasted, median", "value": 0.5, "unit": "h"}, {"measurement": "Difference in AUC, value reported by Veeraraghavan et al. versus present work", "setting": "[2]; [14]", "value": 4.3, "unit": "fold"}, {"measurement": "Difference in Cmax, value reported by Veeraraghavan et al. versus present work", "setting": "[2]; [14]", "value": 5, "unit": "fold"}, {"measurement": "Stability, Accuracy (%)", "setting": "[3]; [15]", "value": 89.0, "unit": "%"}, {"measurement": "Stability, measured conc. Mean ± SD", "setting": "[3]; [15]", "value": "35.6 ± 2.69", "unit": "ng/mL"}, {"measurement": "Stability, Accuracy (%)", "setting": "[3]; [16]", "value": 90.1, "unit": "%"}, {"measurement": "Stability, measured conc. Mean ± SD", "setting": "[3]; [16]", "value": "360.36 ± 11.52", "unit": "ng/mL"}, {"measurement": "Stability, measured conc. Mean ± SD", "setting": "[3]; Bench top (6 h), nominal 40.0 ng/mL", "value": "34.61 ± 3.03", "unit": "ng/mL"}, {"measurement": "Stability, Accuracy (%)", "setting": "[3]; [17]", "value": 85.8, "unit": "%"}, {"measurement": "Stability, measured conc. Mean ± SD", "setting": "[3]; [17]", "value": "343.27 ± 44.76", "unit": "ng/mL"}, {"measurement": "Stability, Accuracy (%)", "setting": "[3]; [18]", "value": 86.6, "unit": "%"}, {"measurement": "Stability, measured conc. Mean ± SD", "setting": "[3]; [18]", "value": "34.63 ± 4.63", "unit": "ng/mL"}, {"measurement": "Stability, Accuracy (%)", "setting": "[3]; [19]", "value": 87.64, "unit": "%"}, {"measurement": "Stability, measured conc. Mean ± SD", "setting": "[3]; [19]", "value": "350.56 ± 28.53", "unit": "ng/mL"}, {"measurement": "Stability, Accuracy (%)", "setting": "[3]; [20]", "value": 85.1, "unit": "%"}, {"measurement": "Stability, measured conc. Mean ± SD", "setting": "[3]; [20]", "value": "34.09 ± 3.99", "unit": "ng/mL"}, {"measurement": "Stability, Accuracy (%)", "setting": "[3]; [21]", "value": 86.4, "unit": "%"}, {"measurement": "Stability, measured conc. Mean ± SD", "setting": "[3]; [21]", "value": "345.73 ± 39.84", "unit": "ng/mL"}, {"measurement": "Stability of working solution", "setting": "[1]; [11]", "value": "stable"}, {"measurement": "Stability of working solution", "setting": "[1]; [12]", "value": "stable"}, {"measurement": "Time to peak plasma concentrations", "setting": "[4]; after oral administration", "value": "approximately 1 h"}, {"measurement": "Oral bioavailability", "setting": "[4]", "value": 79, "unit": "%"}, {"measurement": "Bound to plasma proteins", "setting": "[4]; mainly albumin", "value": "about 50%"}, {"measurement": "Delay in tmax", "setting": "[5]; [22]", "value": 3, "unit": "h"}, {"measurement": "Effect on AUC", "setting": "[5]; [22]", "value": "no effect"}, {"measurement": "Reduction of Cmax", "setting": "[5]; [22]", "value": "about 29%"}, {"measurement": "Change of clearance", "setting": "[5]; with an inhibitor of the transporter OAT3", "value": "reduced"}, {"measurement": "Effect on baricitinib pharmacokinetics", "setting": "[5]; with fluconazole (CYP2C19/CYP2C9/CYP3A inhibitor)", "value": "did not significantly affect"}, {"measurement": "Effect on baricitinib pharmacokinetics", "setting": "[5]; with ketoconazole (CYP3A inhibitor)", "value": "did not significantly affect"}, {"measurement": "Change of Cmax (rate of absorption)", "setting": "[5]; with probenecid", "value": "not significantly increased"}, {"measurement": "Potentiation of AUC0-inf", "setting": "[5]; with probenecid", "value": "twofold"}, {"measurement": "Renal clearance decreased to", "setting": "[5]; with probenecid", "value": 69, "unit": "%"}, {"measurement": "Change of AUC", "setting": "[5]; [23]", "value": "decreased"}, {"measurement": "Change of Cmax", "setting": "[5]; [23]", "value": "without affecting"}, {"measurement": "Metabolism by CYP3A4", "setting": "CYP3A4 enzyme", "value": "primarily metabolized"}, {"measurement": "Substrate of P-glycoprotein (Pgp)", "setting": "P-glycoprotein (Pgp)", "value": "substrate"}, {"measurement": "Substrate of OAT3", "setting": "[6]", "value": "substrate"}, {"measurement": "Substrate of MATE2-K", "setting": "[7]", "value": "substrate"}, {"measurement": "Substrate of BCRP", "setting": "[8]", "value": "substrate"}, {"measurement": "LDL-C and HDL-C levels", "setting": "[9]", "value": "stable dose-response increase"}, {"measurement": "Infection risk", "setting": "[9]; particularly for herpes zoster", "value": "elevates infection risk"}, {"measurement": "Safety and tolerability", "setting": "[9]; patients with moderate to severe RA treated for 24 weeks", "value": "safe and well tolerated"}, {"measurement": "Embryotoxicity and teratogenicity", "setting": "[10]", "value": "embryotoxicity, teratogenicity, and adverse effect on bone development in utero"}]}
